Results as given in US20100056565A1, “Heterocyclic Derivatives as M3 Muscarinic Receptors” (priority 2007, published 2010).
Structures can show the parent of a compound that is named as a salt.

Target: T1, Recombinant human M3 receptor (Homo sapiens, UniProt P20309)
T1 construct: expressed in transfected cells; host or cells: CHO-K1 cells (membranes)
Assay: biochemical
Assay type: binding
Conditions: M3, SPA format assay; read-out: Ki in the SPA format assay
Procedure: Recombinant human M3 receptor was expressed in CHO-K1 cells. Cell membranes were prepared and binding of [3H]-N-methyl scopolamine ([3H]-NMS) and compounds was assessed by a scintillation proximity assay (SPA). The incubation time was 16 hours at room temperature in the presence of 1% (v/v) DMSO. The assay was performed in white 96 well clear-bottomed NBS plates (Corning). Prior to the assay, the CHO cell membranes containing M3 receptor were coated onto SPA WGA (Wheat germ agglutinin) beads (GE Healthcare). Non specific binding was determined in the presence of 1 μM Atropine.
Radioactivity was measured on a Microbeta scintillation counter (PerkinElmer) using a 3H protocol with a 2 minutes per well read time. […] Concentration dependent inhibition of [3H]-NMS binding by compounds was expressed as pIC50.

T1 sequence (P20309 whole entry): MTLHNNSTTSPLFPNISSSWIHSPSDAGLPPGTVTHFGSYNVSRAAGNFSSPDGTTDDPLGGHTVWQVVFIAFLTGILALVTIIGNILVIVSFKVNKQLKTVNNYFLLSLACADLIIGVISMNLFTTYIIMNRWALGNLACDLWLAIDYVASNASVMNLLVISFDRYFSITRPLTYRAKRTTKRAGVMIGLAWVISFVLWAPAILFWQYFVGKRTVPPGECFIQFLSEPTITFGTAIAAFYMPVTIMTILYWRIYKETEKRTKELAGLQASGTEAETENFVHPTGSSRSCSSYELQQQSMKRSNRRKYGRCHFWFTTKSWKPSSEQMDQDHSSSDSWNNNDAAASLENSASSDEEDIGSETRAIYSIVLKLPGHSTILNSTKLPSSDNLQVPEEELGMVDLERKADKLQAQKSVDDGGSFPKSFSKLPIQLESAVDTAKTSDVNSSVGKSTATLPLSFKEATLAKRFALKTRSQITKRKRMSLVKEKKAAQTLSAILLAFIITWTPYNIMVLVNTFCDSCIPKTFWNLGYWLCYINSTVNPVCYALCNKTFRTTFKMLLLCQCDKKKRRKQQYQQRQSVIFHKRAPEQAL

SMILES | Ki [nM]
O[C@](c1ccccc1)(c1ncc(C[N+]23CCC(CC2)[C@@H](Oc2ccc(F)cc2)C3)o1)C1CCCCC1 [Example 66, (R)-1-[2-((R)—Cyclohexyl-hydroxy-phenyl-methyl)-oxazol-5-ylmethyl]-3-(4-fluoro-phenoxy)-1-azonia-bicyclo[2.2.2]octane; bromide] | 0.09

Same assay, conditions: SPA format; read-out: M3 Ki (SPA format)

SMILES | Ki [nM]
OC(c1ccccc1)(c1ccccc1)c1ncc(C[N+]23CCC(CC2)C(SCc2ccccc2)C3)o1 (stereo not drawn) [Example 39, 3-Benzylsulfanyl-1-[2-(hydroxy-diphenyl-methyl)-oxazol-5-ylmethyl]-1-azonia-bicyclo[2.2.2]octane; bromide,] | 5 to 20
O[C@](c1ccccc1)(c1ncc(C[N+]23CCC(CC2)[C@H](SCc2ccccc2)C3)o1)C1CCCCC1 [Example 40, (S)-3-Benzylsulfanyl-1-[2-((R)-cyclohexyl-hydroxy-phenyl-methyl)-oxazol-5-ylmethyl]-1-azonia-bicyclo[2.2.2]octane; bromide] | < 5
O[C@](c1ccccc1)(c1ncc(C[N+]23CCC(CC2)[C@@H](SCc2ccccc2)C3)o1)C1CCCCC1 [Example 41, (R)-3-Benzylsulfanyl-1-[2-((R)-cyclohexyl-hydroxy-phenyl-methyl)-oxazol-5-ylmethyl]-1-azonia-bicyclo[2.2.2]octane; bromide] | < 5
O[C@](c1ccccc1)(c1ncc(C[N+]23CCC(CC2)[C@H](CSc2ccccc2)C3)o1)C1CCCCC1 [Example 43, (S)-1-[2-((R)—Cyclohexyl-hydroxy-phenyl-methyl)-oxazol-5-ylmethyl]-3-phenylsulfanylmethyl-1-azonia-bicyclo[2.2.2]octane; bromide] | < 5
O[C@](c1ccccc1)(c1ncc(C[N+]23CCC(CC2)[C@@H](OCc2ccc(Cl)cc2)C3)o1)C1CCCC1 [Example 44, (R)-3-(4-chloro-benzyloxy)-1-[2-((R)-cyclopentyl-hydroxy-phenyl-methyl)-oxazol-5-ylmethyl]-1-azonia-bicyclo[2.2.2]octane; formate] | < 5
O[C@](c1ccccc1)(c1ncc(C[N+]23CCC(CC2)[C@@H](OCc2ccc(Cl)c(Cl)c2)C3)o1)C1CCCC1 [Example 45, (R)-1-[2-((R)-cyclopentyl-hydroxy-phenyl-methyl)-oxazol-5-ylmethyl]-3-(3,4-dichloro-benzyloxy)-1-azonia-bicyclo[2.2.2]octane; formate] | < 5
O[C@](c1ccccc1)(c1ncc(C[N+]23CCC(CC2)[C@@H](OCc2ccsc2)C3)o1)C1CCCCC1 [Example 46, (R)-1-[2-((A)-Cyclohexyl-hydroxy-phenyl-methyl)-oxazol-5-ylmethyl]-3-(thiophen-3-ylmethoxy)-1-azonia-bicyclo[2.2.2]octane; bromide] | < 5
O[C@](c1ccccc1)(c1ncc(C[N+]23CCC(COCc4ccccc4)(CC2)CC3)o1)C1CCCCC1 [Example 47, 4-Benzyloxymethyl-1-[2-((R)-cyclohexyl-hydroxy-phenyl-methyl)-oxazol-5-ylmethyl]-1-azonia-bicyclo[2.2.2]octane; bromide] | > 20
OC(c1ccccc1)(c1ccccc1)c1ncc(C[N+]23CCC(CC2)[C@@H](OCc2cccc(F)c2)C3)o1 [Example 49, (R)-3-(3-fluoro-benzyloxy)-1-[2-(hydroxy-diphenyl-methyl)-oxazol-5-ylmethyl]-1-azonia-bicyclo[2.2.2]octane; formate] | < 5
C=CCO[C@H]1C[N+]2(Cc3cnc([C@](O)(c4ccccc4)C4CCCCC4)o3)CCC1CC2 [Example 51, (R)-3-allyloxy-1-[2-((R)-cyclohexyl-hydroxy-phenyl-methyl)-oxazol-5-ylmethyl]-1-azonia-bicyclo[2.2.2]octane; formate] | < 5
O[C@](c1ccccc1)(c1ncc(C[N+]23CCC(CC2)[C@@H](OCc2ccccc2F)C3)o1)C1CCCCC1 [Example 52, (R)-1-[2-((R)-cyclohexyl-hydroxy-phenyl-methyl)-oxazol-5-ylmethyl]-3-(2-fluoro-benzyloxy)-1-azonia-bicyclo[2.2.2]octane; formate] | < 5
O[C@](c1ccccc1)(c1ncc(C[N+]23CCC(CC2)[C@@H](OCCC2CCCCC2)C3)o1)C1CCCCC1 [Example 53, (R)-3-(2-cyclohexyl-ethoxy)-1-[2-((R)-cyclohexyl-hydroxy-phenyl-methyl)-oxazol-5-ylmethyl]-1-azonia-bicyclo[2.2.2]octane; formate] | < 5
O[C@](c1ccccc1)(c1ncc(C[N+]23CCC(COc4ccccc4)(CC2)CC3)o1)C1CCCCC1 [Example 55, 1-[2 ((R)—Cyclohexyl-hydroxy-phenyl-methyl)-oxazol-5-ylmethyl]-4-phenoxymethyl-1-azonia-bicyclo[2.2.2]octane; bromide] | < 5
O[C@](c1ccccc1)(c1nnc(C[N+]23CCC(CC2)[C@@H](OCc2ccccc2)C3)o1)C1CCCCC1 [Example 56, (R)-3-benzyloxy-1-[5-((R)-cyclohexyl-hydroxy-phenyl-methyl)-[1,3,4]oxadiazol-2-ylmethyl]-1-azonia-bicyclo[2.2.2]octane; formate] | < 5
OC(c1ccccc1)(c1ccccc1)c1ncc(C[N+]23CCC(CC2)[C@@H](Oc2ccc(C(F)(F)F)cc2)C3)o1 [Example 57, (R)-1-[2-(Hydroxy-diphenyl-methyl)-oxazol-5-ylmethyl]-3-(4-trifluoromethyl-phenoxy)-1-azonia-bicyclo[2.2.2]octane; bromide] | 5 to 20
Cc1ccc(O[C@H]2C[N+]3(Cc4cnc(C(O)(c5ccccc5)c5ccccc5)o4)CCC2CC3)cc1 [Example 58, (R)-1-[2-(Hydroxy-diphenyl-methyl)-oxazol-5-ylmethyl]-3-p-tolyloxy-1-azonia-bicyclo[2.2.2]octane; bromide] | < 5
Cc1ccc(O[C@H]2C[N+]3(Cc4cnc(C(O)(c5ccccc5)c5ccccc5)o4)CCC2CC3)cc1Cl [Example 59, (R)-3-(3-Chloro-4-methyl-phenoxy)-1-[2-(hydroxy-diphenyl-methyl)-oxazol-5-ylmethyl]-1-azonia-bicyclo[2.2.2]octane; bromide] | < 5
Cc1ccc(O[C@H]2C[N+]3(Cc4cnc([C@](O)(c5ccccc5)C5CCCCC5)o4)CCC2CC3)cc1Cl [Example 60, (R)-3-(3-Chloro-4-methyl-phenoxy)-1-[2-((R)-cyclohexyl-hydroxy-phenyl-methyl)-oxazol-5-ylmethyl]-1-azonia-bicyclo[2.2.2]octane; bromide] | < 5
O[C@](c1ccccc1)(c1ncc(C[N+]23CCC(CC2)C(Cc2ccccc2)C3)o1)C1CCCCC1 (stereo partly drawn) [Example 61, 3-benzyl-1-[2-((R)-cyclohexyl-hydroxy-phenyl-methyl)-oxazol-5-ylmethyl]-1-azonia-bicyclo[2.2.2]octane; formate] | < 5
OC(c1ccccc1)(c1ccccc1)c1ncc(C[N+]23CCC(CC2)[C@@H](Oc2cccc(Cl)c2)C3)o1 [Example 62, (R)-3-(3-Chloro-phenoxy)-1-[2-(hydroxy-diphenyl-methyl)-oxazol-5-ylmethyl]-1-azonia-bicyclo[2.2.2]octane; bromide] | < 5
OC(c1ccccc1)(c1ccccc1)c1ncc(C[N+]23CCC(CC2)[C@@H](Oc2ccc(Cl)cc2)C3)o1 [Example 63, (R)-3-(4-Chloro-phenoxy)-1-[2-(hydroxy-diphenyl-methyl)-oxazol-5-ylmethyl]-1-azonia-bicyclo[2.2.2]octane; bromide] | < 5
O[C@](c1ccccc1)(c1ncc(C[N+]23CCC(CC2)[C@@H](Oc2ccc(Cl)cc2)C3)o1)C1CCCCC1 [Example 64, (R)-3-(4-Chloro-phenoxy)-1-[2-((R)-cyclohexyl-hydroxy-phenyl-methyl)-oxazol-5-ylmethyl]-1-azonia-bicyclo[2.2.2]octane; bromide] | < 5
O[C@](c1ccccc1)(c1ncc(C[N+]23CCC(CC2)[C@@H](Oc2cccc(Cl)c2)C3)o1)C1CCCCC1 [Example 65, (R)-3-(3-Chloro-phenoxy)-1-[2-((R)-cyclohexyl-hydroxy-phenyl-methyl)-oxazol-5-ylmethyl]-1-azonia-bicyclo[2.2.2]octane; bromide] | < 5
O[C@](c1ccccc1)(c1ncc(C[N+]23CCC(CC2)[C@@H](Oc2ccc(F)cc2)C3)o1)C1CCCCC1 [Example 66, (R)-1-[2-((R)—Cyclohexyl-hydroxy-phenyl-methyl)-oxazol-5-ylmethyl]-3-(4-fluoro-phenoxy)-1-azonia-bicyclo[2.2.2]octane; bromide] | < 5
O[C@](c1ccccc1)(c1ncc(C[N+]23CCC(CC2)[C@@H](Oc2cccc(F)c2)C3)o1)C1CCCCC1 [Example 67, (R)-1-[2-((R)—Cyclohexyl-hydroxy-phenyl-methyl)-oxazol-5-ylmethyl]-3-(3-fluoro-phenoxy)-1-azonia-bicyclo[2.2.2]octane; bromide] | < 5
OC(c1ccccc1)(c1ccccc1)c1ncc(C[N+]23CCC(CC2)[C@@H](Sc2ccccc2)C3)o1 [Example 68, 1-[2-(Hydroxy-diphenyl-methyl)-oxazol-5-ylmethyl]-3-phenylsulfanyl-1-azonia-bicyclo[2.2.2]octane; bromide] | < 5
O[C@](c1ccccc1)(c1ncc(C[N+]23CCC(CC2)C(Sc2ccccc2)C3)o1)C1CCCCC1 (stereo partly drawn) [Example 69, 1-[2-(R)-cyclohexyl-hydroxy-phenyl-methyl)-oxazol-5-ylmethyl]-3-phenylsulfanyl-1-azonia-bicyclo[2.2.2]octane; formate] | < 5
O[C@](c1ccccc1)(c1nnc(C[N+]23CCC(CC2)[C@@H](Sc2ccccc2)C3)o1)C1CCCCC1 [Example 71, 1-[5-((R)—Cyclohexyl-hydroxy-phenyl-methyl)-[1,3,4]oxadiazol-2-ylmethyl]-3-phenylsulfanyl-1-azonia-bicyclo[2.2.2]octane; bromide] | < 5
OC(c1ccccc1)(c1ccccc1)c1ncc(C[N+]23CCC(CC2)[C@@H](Oc2ccc(F)cc2)C3)o1 [Example 72, (R)-3-(4-Fluoro-phenoxy)-1-[2-(hydroxy-diphenyl-methyl)-oxazol-5-ylmethyl]-1-azonia-bicyclo[2.2.2]octane; bromide] | < 5
